From patent publication US8992603B2, “Coated devices and method of making coated devices that reduce smooth muscle cell proliferation and platelet activity” (Nanocopoeia, Inc., priority 2007, dated 2015)
pEC50, pIC50: −log10 of the molar value. Like-named read-outs stand apart in the source and are kept apart here.

How the values were obtained:
[1] = tested on: macrophages; experiment: LPS-stimulated macrophage activation, nitric oxide release, isobologram; format: cell-based; details: CalcuSyn, read-out: IC50 macrophage activation, individual treatments
Protocol: Macrophages were incubated with differing dose ratios of resveratrol:quercetin and were stimulated with LPS. Activation was assessed as increases in nitric oxide release. The IC50's for each dose ratio were calculated using CaluSyn software and were used to plot the isobologram. The line depicted above indicates the point at which additive responses are observed (C1=1). Points lying above the line indicate antagonism, whereas points below the line represent synergism.
Isobolograms for the determination of synergistic dose ratios for a resveratrol/quercetin combination. To determine the dose ratios for achieving maximal synergistic effects, activation in LPS-stimulated cells macrophages incubated with constant dose ratios of resveratrol and quercetin was measured. The IC50 for each dose ratio was calculated using CalcuSyn software, and these concentrations were used to construct an isobologram (FIG. 13). […] Briefly, CI=1 denotes additive effects, CI>1 denotes antagonism, and CI<1 indicates synergism.

[2] = tested on: VSMC; experiment: BrdU proliferation assay of VSMC with drug-eluting flats; format: cell-based; details: 48 hours elution
Protocol: Bare metal flats coated with resveratrol—(FIG. 17A) or quercetin—(FIG. 17B) containing arbIBS of either a closed or an open morphology were incubated in semi-permeable transwell inserts in plates containing VSMC. The bromodeoxyuridine (BrdU) incorporation assay for cell proliferation was conducted after 48 h of drug elution. […] The polyisobutylene-polystyrene triblock copolymers coated flats containing resveratrol or quercetin were incubated in semi-permeable transwell inserts in plates containing VSMC.

[3] = tested on: platelets; experiment: platelet activation, tritiated serotonin release after ADP; format: cell-based, human; details: 3 h, 5 μM ADP
Protocol: Values represent means+/−standard error.
To determine the efficacy of these compounds in reducing platelet activation, platelets isolated from healthy, male donors were incubated with resveratrol, quercetin, or resveratrol plus quercetin. The doses were selected based on prior studies.

[4] = cited from earlier work
[5] = tested on: platelet activation; experiment: thromboxane B2 levels in mouse carotid artery injury model; format: in vivo; details: 4 weeks oral, 50 mg/kg resveratrol, 10 mg/kg quercetin or both, B6.129 mice
Protocol: Plasma levels of thromboxane B2 (TBX2), a known marker for platelet activation, were assessed.

[6] = tested on: macrophages; experiment: LPS-stimulated macrophage activation, iNOS protein; format: cell-based
Protocol: To test the efficacy of a resveratrol/quercetin combination in inhibiting the activation of macrophages, effects of polyphenol treatments either alone or in combination with quercetin were assessed in cultures of lipopolysaccharide (LPS) stimulated macrophages. Macrophage activation was determined by increases in protein levels of inducible nitric oxide synthase (iNOS) and by levels of reactive oxygen species (ROS).

[7] = tested on: mouse carotid artery injury model; experiment: mouse carotid artery injury model, neointimal area; format: in vivo; details: female B6.129 mice, high fat diet, oral 50 mg/kg resveratrol, 10 mg/kg quercetin or both, 2 weeks before and 2 weeks after injury
Protocol: FIG. 9 is a bar chart showing the effects of oral administration with 50 mg/kg resveratrol (RESV), 10 mg/kg quercetin (QUER), or resveratrol plus quercetin on neointimal areas in mice subjected to the carotid artery injury procedure. Values represent means+SEM. […] Neointimal area was determined by subtracting the luminal area from the area encircled by the internal elastic lamina. Determining whether quercetin potentiates the vascular protective effects of resveratrol in vivo, utilizing a mouse carotid artery injury model. Female B6.129 mice were administered a high fat diet, in some cases mixed together with 50 mg/kg resveratrol (RESV), 10 mg/kg quercetin (QUER), or resveratrol plus quercetin, for 2 weeks. The carotid artery injury procedure was conducted and the animals were fed the high fat diet plus polyphenols for an additional two weeks. The animals were then sacrificed, and the carotid arteries were excised and assessed for neointimal areas.

[8] = resveratrol release from polymer-coated flats (HPLC); format: physicochemical
Protocol: Polymer coated flats were incubated in medium at 37° C. for 28 d. Resveratrol concentration in the medium was assessed at 2 d intervals using high performance liquid chromatography. The data are expressed as means+/−standard error for cumulative release in micromolar concentrations (FIG. 18A) compared to a percent of total drug loaded (FIG. 18B).
Determination of resveratrol release was performed using reversed phase high performance liquid chromatography (HPLC) coupled to a 4-channel Coularray electrochemical detector run at 590, 660, 730, and 800 mV. […] Establishing biocompatibility is a critical step in the development of the stent models.

[9] = tested on: NFκB; experiment: NFκB activation in vascular smooth muscle cells; format: cell-based
Text: FIG. 3 is a bar chart showing the effect of resveratrol on NFκB activation in vascular smooth muscle cells

[10] = target: T1, ER-alpha (Homo sapiens, UniProt P03372); details: same binding site as estradiol; cited from earlier work
T1 sequence (P03372 1-595): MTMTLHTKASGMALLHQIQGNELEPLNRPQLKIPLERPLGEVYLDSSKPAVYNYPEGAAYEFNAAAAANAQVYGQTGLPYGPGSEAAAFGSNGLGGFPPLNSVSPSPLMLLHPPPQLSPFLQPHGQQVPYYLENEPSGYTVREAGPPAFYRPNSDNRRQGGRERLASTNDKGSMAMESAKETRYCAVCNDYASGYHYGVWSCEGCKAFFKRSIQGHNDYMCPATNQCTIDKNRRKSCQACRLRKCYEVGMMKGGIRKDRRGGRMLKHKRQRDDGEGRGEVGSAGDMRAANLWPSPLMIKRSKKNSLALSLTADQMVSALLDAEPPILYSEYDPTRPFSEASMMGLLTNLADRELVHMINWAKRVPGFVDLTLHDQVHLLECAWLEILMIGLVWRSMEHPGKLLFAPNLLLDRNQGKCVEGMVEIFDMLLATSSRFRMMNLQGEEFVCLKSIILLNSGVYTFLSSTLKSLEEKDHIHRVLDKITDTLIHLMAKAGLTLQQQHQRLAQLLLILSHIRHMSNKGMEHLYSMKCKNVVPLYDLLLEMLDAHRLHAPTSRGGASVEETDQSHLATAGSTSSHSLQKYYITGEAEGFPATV

[11] = tested on: VSMC; experiment: VSMC proliferation (DNA synthesis, cell number); format: cell-based; details: Rattus norvegicus

Row | Compound | pIC50 [1] | inhibition of VSMC proliferation ([2]; 75 μg/cm^2, particulate (open) or smooth (closed) matrix) | reduction of serotonin release ([3]; 10-15 μM quercetin) | solubility in water [4] | reduction of plasma TXB2 levels [5] | reduction of iNOS protein ([6]; 10 μM quercetin) | reduction of iNOS protein ([6]; 15 μM quercetin) | neointimal area [7] | inhibition of VSMC proliferation ([2]; smooth (closed) matrix, 100 μg/cm^2 loading) | reduction of serotonin release ([3]; 18 μM resveratrol) | total drug loaded that had eluted ([8]; at 28 days) | eluted concentration of resveratrol ([8]; medium 37° C., 28 d) | release from 100 mg/cm^2 coated flat relative to 50 mg/cm^2-coated flat ([8]; regardless of morphology, medium 37° C.) | inhibition of NFκB activation [9] | binding affinity [10] | reduction of iNOS protein levels ([6]; 18 μM resveratrol) | pEC50 ([11]; read-out: EC50 for inhibiting DNA synthesis) | pEC50 ([11]; read-out: EC50 for reducing numbers of cells)
1 | O=c1c(O)c(-c2ccc(O)c(O)c2)oc2cc(O)cc(O)c12 [quercetin, 2-(3,4-dihydroxyphenyl)-3,5,7-trihydroxy-4H-1-benzopyran-4-one] | 5.62 | significantly inhibited proliferation | 40-50% | practically insoluble | 40% | ~75% | ~90% | no significant effect | – | – | – | – | – | – | – | – | – | –
2 | Oc1ccc(C=Cc2cc(O)cc(O)c2)cc1 [resveratrol] | 5.46 | – | – | – | no significant effect | – | – | dramatically reduced | significantly inhibited proliferation | ~60% | 5-10% | low micromolar concentrations | approximately 4 fold | very potently | lower binding affinity than estradiol | ~25% | 4.74 | 4.60
